Results on 68 sequences are retold here after the supplement of paper PMC11208160.

The nature of this data set: recombinant UMI read abundance after kanamycin selection (control-corrected) (log10(CPM+1)); higher = more efficient recombination; extreme values may be limits of the assay; sequences stand for … in AGTGCAGAGAAAATCGGCCAGTTTTCTCTGCCTGCAGTCCGCATGCCGTGGGACCCCTTGGGTTCTAACCTGTTGCCTAGATTTATGCAGCGGACTGCCTTTCTCCCAAAGTGATAAACCGG…AGGTTGGTTTCACT; site = the 11-nt donor. The gist of the method: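 The measure is log10(CPM+1) for recombinant UMIs. These were PCR-amplified across the donor–target junction and sequenced after Escherichia coli carrying a donor and donor-binding-loop pair library and a target plasmid with T7-inducible IS621 bridge recombinase was plated on IPTG (0.07 mM) plus kanamycin or unselected. CPM were averaged over two replicates and scaled by control-derived factors.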
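Also: IS621 bridge recombinase in Escherichia coli cells against a fixed T5 target plasmid.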

“GAAGGAGCATGGACCGGTTTTCCCGGTAATCCGTATTTGTA (site GAAGGAGCTTA)”: the “recombinant UMI read abundance (log10)” value amounted to 2.33.
The figure for “GAAGGGCCATGGACCGGTTTTCCCGGTAATCCGTATTTGCA (site GAAAGGCCTTG)” is 0.
The value for “GAAGGGCCATGGACCGGTTTTCCCGGTAATCCGTATTTGCA (site GAACGGCCTTG)” was 0; that for “GAAGGGCCATGGACCGGTTTTCCCGGTAATCCGTATTTGCA (site GAAGGGCCTTG)” was 0; that for “GAAGGGCCATGGACCGGTTTTCCCGGTAATCCGTATTTGCA (site GAATGGCCTTG)” was 0.
As for “GAAGGTTCATGGACCGGTTTTCCCGGTAATCCGTATTTGTT (site GAAGATTCTAA)”, the “recombinant UMI read abundance (log10)” value was 1.32.
The figure for “GAAGGTTCATGGACCGGTTTTCCCGGTAATCCGTATTTGTT (site GAAGCTTCTAA)” is 0.00355; for “GAAGGTTCATGGACCGGTTTTCCCGGTAATCCGTATTTGTT (site GAAGGTTCTAA)” it is 2.35; for “GAAGGTTCATGGACCGGTTTTCCCGGTAATCCGTATTTGTT (site GAAGTTTCTAA)” it is 0.
With “GAAGTCACATGGACCGGTTTTCCCGGTAATCCGTATTTGGG (site AAAGTCACTCC)”, the “recombinant UMI read abundance (log10)” value was determined as 0.11.
The value for “GAAGTCACATGGACCGGTTTTCCCGGTAATCCGTATTTGGG (site CAAGTCACTCC)” was 0.0174.
Regarding “GAAGTCACATGGACCGGTTTTCCCGGTAATCCGTATTTGGG (site GAAGTCACTCC)”, the “recombinant UMI read abundance (log10)” value was found to be 0.412.
For the sequence “GAAGTCACATGGACCGGTTTTCCCGGTAATCCGTATTTGGG (site TAAGTCACTCC)”, the “recombinant UMI read abundance (log10)” value came out at 0.221.
The value for “GAAGTGACATGGACCGGTTTTCCCGGTAATCCGTATTTGCG (site GAAGTGACTCG)” was 2.14.
Turning to “GAATAAGCATGGACCGGTTTTCCCGGTAATCCGTATTTGTG (site GAATAAGCTCA)”, the “recombinant UMI read abundance (log10)” value was found to be 1.99.
The figure for “GAATATCCATGGACCGGTTTTCCCGGTAATCCGTATTTGCT (site GAATATCCTAG)” is 1.3; for “GAATATCCATGGACCGGTTTTCCCGGTAATCCGTATTTGCT (site GACTATCCTAG)” it is 0.
The figure for “GAATATCCATGGACCGGTTTTCCCGGTAATCCGTATTTGCT (site GAGTATCCTAG)” is 0; for “GAATATCCATGGACCGGTTTTCCCGGTAATCCGTATTTGCT (site GATTATCCTAG)” it is 0; for “GAATCATCATGGACCGGTTTTCCCGGTAATCCGTATTTGCT (site CGATCATCTAG)” it is 1.88.
The value for “GAATCATCATGGACCGGTTTTCCCGGTAATCCGTATTTGCT (site GAATCATCTAG)” was 1.95; that for “GAATCGTCATGGACCGGTTTTCCCGGTAATCCGTATTTGCA (site GAATCGTCTTG)” was 2.71; that for “GAATCTCCATGGACCGGTTTTCCCGGTAATCCGTATTTGAA (site GAATCTCCTTT)” was 0.611.
Take “GAATGCACATGGACCGGTTTTCCCGGTAATCCGTATTTGTA (site GAATGCACTTA)”: the “recombinant UMI read abundance (log10)” value stood at 1.87.
The figure for “GAATGCACATGGACCGGTTTTCCCGGTAATCCGTATTTGTA (site GCATGCACTTA)” is 0.691; for “GAATGCACATGGACCGGTTTTCCCGGTAATCCGTATTTGTA (site GGATGCACTTA)” it is 0.585; for “GAATGCACATGGACCGGTTTTCCCGGTAATCCGTATTTGTA (site GTATGCACTTA)” it is 0.36.
As for “GAATGGACATGGACCGGTTTTCCCGGTAATCCGTATTTGAC (site GAATGGACTGT)”, the “recombinant UMI read abundance (log10)” value is 2.81.
The value for “GAATGGACATGGACCGGTTTTCCCGGTAATCCGTATTTGAC (site GACTGGACTGT)” was 0; that for “GAATGGACATGGACCGGTTTTCCCGGTAATCCGTATTTGAC (site GAGTGGACTGT)” was 0; that for “GAATGGACATGGACCGGTTTTCCCGGTAATCCGTATTTGAC (site GATTGGACTGT)” was 0.743.
In the case of “GAATGGACATGGACCGGTTTTCCCGGTAATCCGTATTTGCA (site GAATGGACTTG)”, the “recombinant UMI read abundance (log10)” value came to 2.46.
The value for “GAATGGACATGGACCGGTTTTCCCGGTAATCCGTATTTGCA (site GAATGGCCTTG)” was 0.483; that for “GAATGGACATGGACCGGTTTTCCCGGTAATCCGTATTTGCA (site GAATGGGCTTG)” was 2.41; that for “GAATGGACATGGACCGGTTTTCCCGGTAATCCGTATTTGCA (site GAATGGTCTTG)” was 1.59.
Regarding “GAATGGCCATGGACCGGTTTTCCCGGTAATCCGTATTTGAA (site GAATGGCCTTA)”, the “recombinant UMI read abundance (log10)” value turned out to be 0.00888.
The figure for “GAATGGCCATGGACCGGTTTTCCCGGTAATCCGTATTTGAA (site GAATGGCCTTC)” is 0; for “GAATGGCCATGGACCGGTTTTCCCGGTAATCCGTATTTGAA (site GAATGGCCTTG)” it is 0.0104; for “GAATGGCCATGGACCGGTTTTCCCGGTAATCCGTATTTGAA (site GAATGGCCTTT)” it is 0.0109.
The value for “GAATGGTCATGGACCGGTTTTCCCGGTAATCCGTATTTGCA (site GAATGGACTTG)” was 0.0076; that for “GAATGGTCATGGACCGGTTTTCCCGGTAATCCGTATTTGCA (site GAATGGCCTTG)” was 0; that for “GAATGGTCATGGACCGGTTTTCCCGGTAATCCGTATTTGCA (site GAATGGGCTTG)” was 0.00395.
“GAATGGTCATGGACCGGTTTTCCCGGTAATCCGTATTTGCA (site GAATGGTCTTG)”: the “recombinant UMI read abundance (log10)” value was determined as 2.38.
For “GAATTCCCATGGACCGGTTTTCCCGGTAATCCGTATTTGTA (site GAATTCCCTTA)”, the “recombinant UMI read abundance (log10)” value is 0.666.
For “GAATTGACATGGACCGGTTTTCCCGGTAATCCGTATTTGAT (site GAATTGACTAT)”, the “recombinant UMI read abundance (log10)” value was found to be 1.37.
The figure for “GAATTGCCATGGACCGGTTTTCCCGGTAATCCGTATTTGCA (site GAATAGCCTTG)” is 0; for “GAATTGCCATGGACCGGTTTTCCCGGTAATCCGTATTTGCA (site GAATCGCCTTG)” it is 0.
In the case of “GAATTGCCATGGACCGGTTTTCCCGGTAATCCGTATTTGCA (site GAATGGCCTTG)”, the “recombinant UMI read abundance (log10)” value worked out at 0.696.
The figure for “GAATTGCCATGGACCGGTTTTCCCGGTAATCCGTATTTGCA (site GAATTGCCTTG)” is 0; for “GACAAATCATGGACCGGTTTTCCCGGTAATCCGTATTTGGT (site GACAAAACTAC)” it is 0; for “GACAAATCATGGACCGGTTTTCCCGGTAATCCGTATTTGGT (site GACAAACCTAC)” it is 0.
The figure for “GACAAATCATGGACCGGTTTTCCCGGTAATCCGTATTTGGT (site GACAAAGCTAC)” is 0.224; for “GACAAATCATGGACCGGTTTTCCCGGTAATCCGTATTTGGT (site GACAAATCTAC)” it is 0.59; for “GACAATCCATGGACCGGTTTTCCCGGTAATCCGTATTTGGT (site GACAAACCTAC)” it is 0.
Turning to “GACAATCCATGGACCGGTTTTCCCGGTAATCCGTATTTGGT (site GACAACCCTAC)”, the “recombinant UMI read abundance (log10)” value stood at 0.00483.
Regarding “GACAATCCATGGACCGGTTTTCCCGGTAATCCGTATTTGGT (site GACAAGCCTAC)”, the “recombinant UMI read abundance (log10)” value was found to be 0.0115.
For the sequence “GACAATCCATGGACCGGTTTTCCCGGTAATCCGTATTTGGT (site GACAATCCTAC)”, the “recombinant UMI read abundance (log10)” value came to 0.0195.
Regarding “GACACGACATGGACCGGTTTTCCCGGTAATCCGTATTTGGG (site GACACGACTCC)”, the “recombinant UMI read abundance (log10)” value was determined as 0.173.
The figure for “GACAGGGCATGGACCGGTTTTCCCGGTAATCCGTATTTGAT (site GACAGGGCTAT)” is 1.89; for “GACATCCCATGGACCGGTTTTCCCGGTAATCCGTATTTGAA (site GACATCCCTTT)” it is 0.475.
With “GACCAACCATGGACCGGTTTTCCCGGTAATCCGTATTTGGT (site GACAAACCTAC)”, the “recombinant UMI read abundance (log10)” value amounted to 0.
The figure for “GACCAACCATGGACCGGTTTTCCCGGTAATCCGTATTTGGT (site GACCAACCTAC)” is 0.0426; for “GACCAACCATGGACCGGTTTTCCCGGTAATCCGTATTTGGT (site GACGAACCTAC)” it is 0.
Turning to “GACCAACCATGGACCGGTTTTCCCGGTAATCCGTATTTGGT (site GACTAACCTAC)”, the “recombinant UMI read abundance (log10)” value stood at 0.00842.
The figure for “GACCCATCATGGACCGGTTTTCCCGGTAATCCGTATTTGAG (site GACCCATCTCT)” is 2.43; for “GACCGTCCATGGACCGGTTTTCCCGGTAATCCGTATTTGAG (site GACCGTCCTCT)” it is 0.281.
The figure for “GACCTACCATGGACCGGTTTTCCCGGTAATCCGTATTTGTC (site GACCTACCTGA)” is 0; for “GACCTCACATGGACCGGTTTTCCCGGTAATCCGTATTTGGG (site GACCTCACTCC)” it is 0.0144.
